Reference: patent US20040024024A1, “Aromatic sulfone hydroxamates and their use as protease inhibitors” (priority 2001, published 2004)

What was measured:
Experiment in all cases: In vitro MMP inhibition, Ki determination (fluorogenic substrate II)
Assay type in all cases: biochemical
Human recombinant MMP-14 = molecular target: T1, Human recombinant MMP-14 (Homo sapiens, UniProt P50281)
T1 construct: The catalytic domain enzyme was expressed in E. coli inclusion bodies, solubilized in urea; made in house
Protocol: (§1) Several hydroxamates and salts thereof were analyzed in in vitro assays to determine their ability to inhibit the MMP cleavage of peptide substrates. Inhibition (Ki) and IC50 constants were calculated from the assayed hydroxamate-MMP interactions.
(§2) Human recombinant MMP-1, MMP-2, MMP-9, MMP-13, and MMP-14 were used in this assay. All enzymes were prepared in Assignee's laboratories following usual laboratory procedures. Protocols for the preparation and use of these enzymes are available in the scientific literature. See, e.g., Enzyme Nomenclature (Academic Press, San Diego, Calif., 1992) (and the citations therein). See also, Frije et al., J. Biol. Chem., 26(24), 16766-73 (1994).
The MMP-14 full length cDNA was provided by Dr. Gregory Goldberg of Washington University (St. Louis, Mo.). The catalytic domain enzyme was expressed in E. coli inclusion bodies, solubilized in urea, purified on a preparative […] reverse phase HPLC column, and then refolded in the presence of zinc acetate and purified for use.
(§3) All MMPs were activated using 4-aminophenylmercuric acetate (“APMA”, Sigma Chemical, St. Louis, Mo.) or trypsin. MMP-9 also was activated using human recombinant MMP-3 (purified in Assignee's laboratory following standard cloning and purification techniques).
(§4) Two fluorogenic, methoxycoumarin-containing polypeptide substrates were used in the MMP inhibition assays:
(§5) MCA-ArgProLeuGlyLeuDpaAlaArgGluArgNH2 (II)
(§6) Here, “Dpa” is 3-(2,4-dinitrophenyl)-L-2,3-diaminopropionyl group, and “MCA” is 7-methoxycoumarin-4-yl acetyl. Substrate (I) was purchased from Baychem (Redwood City, Calif.), and substrate II was prepared Assignee's laboratory. Substrate I was used in the IC50 determination assays, while substrate II was used in the Ki determination assays. In the absence of MMP inhibitory activity, either substrate is cleaved at the Gly-Leu peptide bond. This cleavage separates the highly fluorogenic peptide from the 2,4-dinitrophenyl quencher, thus resulting in increase of fluorescent intensity.
(§7) The stock solutions of the assayed hydroxamates (or salts thereof) were prepared in 1% dimethyl sulfoxide (DMSO). These stock solutions were diluted in Buffer A (100 mM Tris-HCl, 100 mM NaCl, 10 mM CaCl2, 0.05% polyoxyethylene 23 lauryl ether, pH 7.5) to obtain solutions with different hydroxamate concentrations, i.e., assay solutions with different concentrations of the assayed MMP inhibitory compound. The experiment controls contained the same amount of Buffer A/DMSO as the assayed sample, but contained no hydroxamate (or salt thereof).
(§8) The assays from which the Ki determinations were made were performed as follows. The assayed hydroxamate samples were incubated in separate wells of untreated white polystyrene plates (Nunc Nalgene International, Rochester, N.Y.), and analyzed on a Tecan SpectraFlour Plus plate reader. The excitation wavelength was 330 nm, and the emission wavelength—420 nm. All samples (assayed hydroxamates and controls) were incubated in separate plate wells at room temperature for 1 hr in the presence of 4 μM of MMP substrate (II). In the absence of MMP inhibitory activity, substrate II was cleaved at the Gly-Leu bond resulting in an increase of relative fluorescence. Inhibition was observed as a reduced rate of this increase in relative fluorescence. The various hydroxamates were analyzed using a single low enzyme concentration with a single substrate concentration fixed at or below the Km. This protocol is a modification of method by Knight et al., FEBS Lett., 296(3), 263-266 (1992). Apparent inhibitory constants were determined by non-linear regression of reaction velocity as a function of inhibitor and enzyme concentration using Morrison's equation, as described by Kuzmic, Anal. Biochem. 286, 45-50 (2000). Modifications were made in the non-linear regression method to allow a common control reaction rate and effective enzyme concentration to be shared between all dose-response relationships on a given assay plate. […]

Human recombinant MMP-9 = molecular target: T2, Human recombinant MMP-9 (Homo sapiens, UniProt P14780)
T2 construct: made in house; host or cells: MMP-9-transfected HT1080 cells (spent media)
Protocol: as §1, §2
The MMP-9 proenzyme was purified by gelatin Sepharose chromatography from spent media of MMP-9-transfected HT1080 cells provided by Dr. Howard Welgus of Washington University (St. Louis, Mo.).
as §3, §4, §5, §6, §7, §8

Human recombinant MMP-13 = molecular target: T3, Human recombinant MMP-13 (Homo sapiens, UniProt P45452)
T3 construct: made in house; host or cells: baculovirus / insect cells
Protocol: as §1, §2
The expressed proenzyme was first purified over a heparin agarose column, and then over a chelating zinc chloride column. The proenzyme was then activated by APMA for use in the assay. Further details on baculovirus expression systems may be found in, for example, Luckow et al., J. Virol., 67, 4566-79 (1993). See also, O'Reilly et al, Baculovirus Expression Vectors: A Laboratory Manual (W. H. Freeman and Co., New York, N.Y., 1992). See also, King et al., The Baculovirus Expression System: A Laboratory Guide (Chapman & Hall, London, England, 1992).
as §3, §4, §5, §6, §7
as §8, with “(2000).” for “(2000). Modifications were made in the non-linear regression method to allow a common control reaction rate and effective enzyme concentration to be shared between all dose-response relationships on a given assay plate.”

[1] = substrate (II) 4 μM, 1 hr room temperature, apparent Ki, values in parenthesis

T2 sequence (P14780 107-707 limits assumed): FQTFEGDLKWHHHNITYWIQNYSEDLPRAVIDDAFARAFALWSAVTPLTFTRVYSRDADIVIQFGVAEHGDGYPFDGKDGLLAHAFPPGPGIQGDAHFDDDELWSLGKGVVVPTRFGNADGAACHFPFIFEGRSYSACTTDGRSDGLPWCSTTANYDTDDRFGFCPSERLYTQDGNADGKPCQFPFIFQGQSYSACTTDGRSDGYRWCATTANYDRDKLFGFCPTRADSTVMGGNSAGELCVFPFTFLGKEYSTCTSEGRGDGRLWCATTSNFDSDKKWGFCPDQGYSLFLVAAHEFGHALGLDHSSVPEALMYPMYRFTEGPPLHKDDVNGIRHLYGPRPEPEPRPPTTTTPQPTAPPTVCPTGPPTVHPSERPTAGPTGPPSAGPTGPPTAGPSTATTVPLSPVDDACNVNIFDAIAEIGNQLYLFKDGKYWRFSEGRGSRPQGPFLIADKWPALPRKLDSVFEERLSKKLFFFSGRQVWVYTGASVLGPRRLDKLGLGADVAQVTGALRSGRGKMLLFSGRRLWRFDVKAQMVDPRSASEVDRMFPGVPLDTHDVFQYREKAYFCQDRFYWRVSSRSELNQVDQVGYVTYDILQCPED

| Structure (SMILES) | Ki (Human recombinant MMP-14; value in parenthesis) [nM] | Ki (Human recombinant MMP-9; value in parenthesis) [nM] | Ki (Human recombinant MMP-13; value in parenthesis) [nM] | Ki (Human recombinant MMP-14; value in parentheses) [nM] | Ki (Human recombinant MMP-9; value in parentheses) [nM] | Ki (Human recombinant MMP-13; value in parentheses) [nM] | also measured |
| --- | --- | --- | --- | --- | --- | --- | --- |
| O=C(NO)C1(S(=O)(=O)c2ccc(OCCc3cccc(-c4ccccc4F)c3)cc2)CCOCC1 [Example 115] | > 10000 | 1980 | 2.24 |  |  |  |  |
| O=C(NO)C1(S(=O)(=O)c2ccc(OCCCc3cccc(-c4ccc(F)cc4)c3)cc2)CCN(C2CC2)CC1 [Example 139] | > 10000 | 1390 | 2.89 |  |  |  |  |
| O=C(NO)C1(S(=O)(=O)c2ccc(OCCCc3cccc(-c4csc5ccccc45)c3)cc2)CCOCC1 [Example 631] |  |  |  | > 10000 | 5810 | 57.6 |  |
| O=C(CCCOc1ccc(S(=O)(=O)C2(C(=O)NO)CCOCC2)cc1)Nc1cccc(I)c1 [Example 570] |  |  |  | 1360 | 6.15 | 0.142 |  |
| COCCN1CCC(C(=O)NO)(S(=O)(=O)c2ccc(OCCCc3nc(-c4ccc(OC(F)(F)F)cc4)no3)cc2)CC1 [Example 190] | > 10000 | 669 | 0.6 |  |  |  |  |
| O=C(COc1ccc(S(=O)(=O)C2(C(=O)NO)CCOCC2)cc1)c1cccc(-c2ccccc2)c1 [Example 563] |  |  |  | 4400 | 132 | 0.7 |  |
| COc1ccc(/C(C#N)=C/CCCOc2ccc(S(=O)(=O)C3(C(=O)NO)CCN(C4CC4)CC3)cc2)cc1 [Example 233] | > 10000 | 509 | 0.137 |  |  |  |  |
| O=C(NO)C1(S(=O)(=O)c2ccc(OCCCc3cccc(-c4ccc(C(F)(F)F)cc4)c3)cc2)CCOCC1 [Example 625] |  |  |  | > 10000 | 4600 | 43.6 |  |
| O=C(NO)C1(S(=O)(=O)c2ccc(OCCCc3cccc(-c4ccoc4)c3)cc2)CCOCC1 [Example 637] |  |  |  | > 10000 | 881 | 4.63 |  |
| COCCN1CCC(C(=O)NO)(S(=O)(=O)c2ccc(OCCCc3nnc(-c4ccccc4C(F)(F)F)o3)cc2)CC1 [Example 178] | > 10000 | 306 | 1.71 |  |  |  |  |
| O=C(NO)C1(S(=O)(=O)c2ccc(OCCCn3nnc(-c4ccc(OC(F)(F)F)cc4)n3)cc2)CCN(C2CC2)CC1 [Example 49] |  |  |  |  |  |  | Ki (Human recombinant MMP-14; [1]): > 10000 nM; Ki (Human recombinant MMP-9; [1]): 1950 nM; Ki (Human recombinant MMP-13; [1]): 0.439 nM |
| O=C(NO)C1(S(=O)(=O)c2ccc(OCCCc3cccc(-c4cc5ccccc5s4)c3)cc2)CCOCC1 [Example 633] |  |  |  | > 10000 | 6780 | 92.4 |  |
| O=C(NO)C1(S(=O)(=O)c2ccc(OCCc3cccc(-c4ccccn4)c3)cc2)CCOCC1 [Example 40] |  |  |  |  |  |  | Ki (Human recombinant MMP-14; [1]): > 10000 nM; Ki (Human recombinant MMP-9; [1]): 585 nM; Ki (Human recombinant MMP-13; [1]): 0.58 nM |
| O=C(NO)C1(S(=O)(=O)c2ccc(OCCCc3cccc(-c4ccc(F)cc4F)c3)cc2)CCOCC1 [Example 630] |  |  |  | > 10000 | 2280 | 6.02 |  |
| O=C(NO)C1(S(=O)(=O)c2ccc(OCCCc3cncc(-c4ccccc4)c3)cc2)CCOCC1 [Example 524] |  |  |  | > 10000 | 739 | 0.244 |  |
| C=Cc1ccc(-c2cccc(CCCOc3ccc(S(=O)(=O)C4(C(=O)NO)CCOCC4)cc3)c2)cc1 [Example 635] |  |  |  | > 10000 | 4830 | 26.2 |  |
| COCCN1CCC(C(=O)NO)(S(=O)(=O)c2ccc(OCCCc3nc(-c4ccc(CC(C)C)cc4)no3)cc2)CC1 [Example 175] | > 10000 | 1390 | 2.01 |  |  |  |  |
| O=C(NO)C1(S(=O)(=O)c2ccc(OCCCc3cccc(-c4ccccc4F)c3)cc2)CCOCC1 [Example 163] | > 10000 | 2500 | 11.6 |  |  |  |  |
| COCCN1CCC(C(=O)NO)(S(=O)(=O)c2ccc(OCCCc3nc(-c4ccc(OC(F)(F)F)cc4)no3)cc2)CC1 [Example 42] |  |  |  |  |  |  | Ki (Human recombinant MMP-14; [1]): > 10000 nM; Ki (Human recombinant MMP-9; [1]): 662 nM; Ki (Human recombinant MMP-13; [1]): 0.486 nM |
| N#Cc1ccc(-c2cccc(CCCOc3ccc(S(=O)(=O)C4(C(=O)NO)CCOCC4)cc3)c2)cc1 [Example 624] |  |  |  | 7580 | 443 | 0.9 |  |
| O=C(NO)C1(S(=O)(=O)c2ccc(OCCCc3cccc(Cc4ccccc4)c3)cc2)CCOCC1 [Example 98] | > 10000 | 1450 | 9.15 |  |  |  |  |
